The source of these data is patent US7585859B2, “PDE4B inhibitors and uses therefor” (Plexxikon, Inc., priority 2004, dated 2009).

The target of one experiment is T1, PDE4D (Homo sapiens, UniProt Q08499).
T1 construct: PDE4D: The catalytic domain of human PDE4B from S3 16-V692; His6 (N); thrombin cleavage site (N); made in house; host or cells: E. coli
Description: PDE4 IC50 determination by Scintillation Proximity Assay, PDE4D. The format is biochemical. The protocol: (§1) IC50s were determined by Scintillation Proximity Assay (SPA). The principle of the assay is based on the fact that cAMP, the PDE4 substrate, binds weakly to Yittrium Silicate SPA beads, whereas AMP, the product of PDE4 hydrolysis binds strongly. Thus, the extent of PDE4 hydrolysis of a sample of [^3H]cAMP can be measured because only the
(§2) [^3H]AMP produced by PDE4 hydrolysis will bind to the SPA beads and produce a scintillation signal.
(§3) PDE4 enzymes used for IC50 assays were:
(§4) Enzyme was stored in 50% glycerol at −20°.
(§5) In addition to the compound dilutions, each assay plate contained control wells with 1 μl of DMSO (to define 0% enzyme inhibition) or 1 μl of 200 μM roflumilast (to define 100% enzyme inhibition). […] Next, 10 μl of PDE4 enzyme in assay buffer was added and the plates were shaken for 30 s. at 1000 rpm to start the cAMP hydrolysis reaction. The concentrations of enzyme used were: PDE4B, 80 ng/ml; PDE4D, 4 ng/ml; PDE4B2, 2.5 μl of 50% glycerol stock/ml; PDE4D5 0.083 μl of 50% glycerol stock/ml. Assay plates were covered and incubated for 30 min. at 30°. […] The assay plates were covered with clear plastic film, centrifuged for 1 min. at 1000 RPM to settle the SPA beads, and counted using a Wallac TriLux scintillation counter. IC50's were calculated from the raw assay data by non-linear regression curve fitting using the Assay Explorer software package from MDL.

The target in experiment [1] is T2, PDE4B: The catalytic domain of human PDE4B from S152-S528 (Homo sapiens, UniProt Q07343).
T2 construct: His6 (N); thrombin cleavage site (N); made in house; host or cells: E. coli
Description: PDE4 IC50 determination by Scintillation Proximity Assay, PDE4B. The format is biochemical. How it is done: as §1, §2, §3, §4, §5

The mark [2] stands for this setting: Table 1B, Formula I compounds, read-out: IC50 PDE4D.
Setting [3] is: Table 1B, Formula I compounds, read-out: IC50 PDE4B.
The mark [4] stands for this setting: Table 3A, Formula III compounds, read-out: IC50 PDE4D.
Where [5] appears, read: Table 3A, Formula III compounds, read-out: IC50 PDE4B.
Where [6] appears, read: second part of Table 2B (2-23 to 2-103), column 5, column is PDE4D in first part, read-out: IC 50 vs. indicated assay h TNFα.
The mark [7] stands for this setting: second part of Table 2B (2-23 to 2-103), column 3, column is PDE4B in first part, read-out: IC 50 vs. indicated assay h TNFα.

Where two headings read alike, the source gives them in different places. Where only a bound is given, the exact number is not on record here.

T1 sequence (Q08499 380-756): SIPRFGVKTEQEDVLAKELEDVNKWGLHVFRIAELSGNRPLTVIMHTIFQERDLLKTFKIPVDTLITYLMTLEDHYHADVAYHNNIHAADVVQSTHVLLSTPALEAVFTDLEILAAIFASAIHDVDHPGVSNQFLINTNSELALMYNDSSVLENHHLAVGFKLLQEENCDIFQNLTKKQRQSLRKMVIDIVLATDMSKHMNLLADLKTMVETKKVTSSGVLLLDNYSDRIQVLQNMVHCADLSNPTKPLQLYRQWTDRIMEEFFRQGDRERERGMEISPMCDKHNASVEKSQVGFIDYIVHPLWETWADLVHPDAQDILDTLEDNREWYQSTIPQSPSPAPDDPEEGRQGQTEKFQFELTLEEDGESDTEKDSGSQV
T2 sequence (Q07343 with tags, fused parts or gaps): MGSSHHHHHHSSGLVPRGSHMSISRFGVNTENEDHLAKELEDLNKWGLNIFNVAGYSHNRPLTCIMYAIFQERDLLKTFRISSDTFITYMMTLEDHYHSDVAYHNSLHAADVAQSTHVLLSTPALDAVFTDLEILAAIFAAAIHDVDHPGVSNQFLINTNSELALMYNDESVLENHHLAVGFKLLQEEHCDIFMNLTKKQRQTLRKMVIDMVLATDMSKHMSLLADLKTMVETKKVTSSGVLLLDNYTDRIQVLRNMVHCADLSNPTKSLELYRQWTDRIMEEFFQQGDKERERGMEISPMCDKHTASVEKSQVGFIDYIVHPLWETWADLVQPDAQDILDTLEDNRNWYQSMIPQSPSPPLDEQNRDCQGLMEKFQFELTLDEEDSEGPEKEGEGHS

Turning to `N#Cc1c(NCCN2CCCCC2)sc(C(=O)c2cccc(Cl)c2)c1N` [Compound 1-47, 4-Amino-5-(3-chloro-benzoyl)-2-(2-piperidin-1-yl-ethylamino)-thiophene-3-carbonitrile], the IC50 (at PDE4D (setting [2]); in experiment [1] (setting [3])) was above 10 µM throughout.

As for `COc1cc(NS(=O)(=O)c2ccc(-c3ccon3)s2)c2ncccc2c1` [Compound 3-25, 5-Isoxazol-3-yl-thiophene-2-sulfonic acid (6-methoxy-quinolin-8-yl)-amide], the IC50 (at PDE4D (setting [4]); in experiment [1] (setting [5])) was above 10 µM each time.

As for `Nc1nc(Nc2ccc(Oc3ccccc3)nc2)sc1C(=O)c1ccccc1` [Compound 2-74, [4-Amino-2-(6-phenoxy-pyridin-3-ylamino)-thiazol-5-yl]-phenyl-methanone], the IC50 at PDE4D (setting [6]) was below 10 µM; in experiment [1] (setting [7]) it was above 10 µM.

As for `Nc1nc(Nc2cccc(C(=O)O)c2)sc1C(=O)c1ccccc1` [Compound 2-36, 3-(4-Amino-5-benzoyl-thiazol-2-ylamino)-benzoic acid], the IC50 (on PDE4D (setting [6]); in experiment [1] (setting [7])) was below 10 µM in each case.

Turning to `Cc1ccc2cccnc2c1NS(=O)(=O)c1ccc(-c2ccon2)s1` [Compound 3-24, 5-Isoxazol-3-yl-thiophene-2-sulfonic acid (7-methyl-quinolin-8-yl)-amide], the IC50 (on PDE4D (setting [4]); in experiment [1] (setting [5])) was above 10 µM each time.

For `Cc1ccccc1C(=O)Nc1sc(C(=O)c2ccccn2)c(N)c1C#N` [Compound 1-160, N-[4-Amino-3-cyano-5-(pyridine-2-carbonyl)-thiophen-2-yl]-2-methyl-benzamide], the IC50 on PDE4D (setting [2]) is above 10 µM; in experiment [1] (setting [3]), below 10 µM.

Turning to `CN1CCN(C(=O)C(=O)c2sc(NC3CCCC3)c(C#N)c2N)CC1` [Compound 1-218, 4-Amino-2-cyclopentylamino-5-[2-(4-methyl-piperazin-1-yl)-2-oxo-acetyl]-carbonitrile], the IC50 (on PDE4D (setting [2]); in experiment [1] (setting [3])) was above 10 µM each time.

On to `COC(=O)C(CC(C)C)Nc1sc(C(=O)c2cc(OC)ccc2OC)c(N)c1C#N` (centres unmarked) [Compound 1-154, 2-[4-Amino-3-cyano-5-(2,5-dimethoxy-benzoyl)-thiophen-2-ylamino]-4-methyl-pentanoic acid methyl ester], for which the values for the IC50 (on PDE4D (setting [2]); in experiment [1] (setting [3])) were above 10 µM and below 10 µM, respectively.

As to `COC(=O)C(CCSC)Nc1sc(C(=O)c2coc3ccccc23)c(N)c1C#N` (centres unmarked) [Compound 1-107, 2-[4-Amino-5-(benzofuran-3-carbonyl)-3-cyano-thiophen-2-ylamino]-4-methylsulfanyl-butyric acid methyl ester], the IC50 (at PDE4D (setting [2]); in experiment [1] (setting [3])) was below 10 µM in each case.

Take `COC(=O)C(CC(C)C)Nc1sc(C(=O)c2cc(-c3ccc(Cl)c(Cl)c3)no2)c(N)c1C#N` (centres unmarked) [Compound 1-84, 2-{4-Amino-3-cyano-5-[3-(3,4-dichloro-phenyl)-isoxazole-5-carbonyl]-thiophen-2-ylamino}-4-methyl-pentanoic acid methyl ester]: the IC50 (at PDE4D (setting [2]); in experiment [1] (setting [3])) was above 10 µM in each case.

With `N#Cc1c(Nc2ccc(Oc3ccccc3)cc2)sc(C(=O)c2ccccn2)c1N` [Compound 1-150, 4-Amino-2-(4-phenoxy-phenylamino)-5-(pyridine-2-carbonyl)-thiophene-3-carbonitrile], the IC50 at PDE4D (setting [2]) was above 10 µM; in experiment [1] (setting [3]), below 10 µM.

For `Cc1ccc2cccnc2c1NS(=O)(=O)c1ccc(S(=O)(=O)c2ccccc2)s1` [Compound 3-38, 5-Benzenesulfonyl-thiophene-2-sulfonic acid (7-methyl-quinolin-8-yl)-amide], the IC50 (on PDE4D (setting [4]); in experiment [1] (setting [5])) was above 10 µM in each case.

Regarding `N#Cc1c(NCC2CCCO2)sc(C(=O)c2ccc(-c3ccccn3)s2)c1N` (centres unmarked) [Compound 1-80, 4-Amino-5-(5-pyridin-2-yl-thiophene-2-carbonyl)-2-[(tetrahydro-furan-2-ylmethyl)-amino]-thiophene-3-carbonitrile], the IC50 (on PDE4D (setting [2]); in experiment [1] (setting [3])) was below 10 µM in each case.

In the case of `CCC(C)Nc1sc(C(=O)c2ccc(Oc3ccccc3)cc2)c(N)c1C#N` (centres unmarked) [Compound 1-232, 4-Amino-2-sec-butylamino-5-(4-phenoxy-benzoyl)-thiophene-3-carbonitrile], the IC50 (on PDE4D (setting [2]); in experiment [1] (setting [3])) was below 10 µM throughout.

In the case of `Nc1nc(Nc2c(Cl)cc(Cl)cc2Cl)sc1C(=O)c1ccccc1` [Compound 2-43, [4-Amino-2-(2,4,6-trichloro-phenylamino)-thiazol-5-yl]-phenyl-methanone], the figures for the IC50 (at PDE4D (setting [6]); in experiment [1] (setting [7])) were above 10 µM and below 10 µM, respectively.

For the molecule `CCc1ccccc1Nc1sc(C(=O)c2ccccn2)c(N)c1C#N` [Compound 1-153, 4-Amino-2-(2-ethyl-phenylamino)-5-(pyridine-2-carbonyl)-thiophene-3-carbonitrile], the figures for the IC50 (at PDE4D (setting [2]); in experiment [1] (setting [3])) were above 10 µM and below 10 µM, respectively.

Take `CCOC(=O)C(=O)c1sc(NC2CCCC2)c(C#N)c1N` [Compound 1-201, (3-Amino-4-cyano-5-cyclopentylamino-thiophen-2-yl)-oxo-acetic acid ethyl ester]: the IC50 (at PDE4D (setting [2]); in experiment [1] (setting [3])) was below 10 µM in each case.

On to `N#Cc1c(Nc2ccccc2)sc(C(=O)Nc2nccs2)c1N` [Compound 1-25, 3-Amino-4-cyano-5-phenylamino-thiophene-2-carboxylic acid thiazol-2-yl amide], for which the IC50 (at PDE4D (setting [2]); in experiment [1] (setting [3])) was below 10 µM each time.

For `COc1cc(NS(=O)(=O)c2cc(Cl)c(Cl)s2)c2ncccc2c1` [Compound 3-9, 4,5-Dichloro-thiophene-2-sulfonic acid (6-methoxy-quinolin-8-yl)-amide], the IC50 (at PDE4D (setting [4]); in experiment [1] (setting [5])) was above 10 µM each time.

Turning to `Cc1nccc(-c2cccc(S(=O)(=O)Nc3cccc4cccnc34)c2)n1` [Compound 3-66, 3-(2-Methyl-pyrimidin-4-yl)-N-quinolin-8-yl-benzenesulfonamide], the IC50 (on PDE4D (setting [4]); in experiment [1] (setting [5])) was below 10 µM in each case.

With `Nc1nc(Nc2ccc(Cl)cc2)sc1C(=O)c1cccc([N+](=O)[O-])c1` [Compound 2-24, [4-Amino-2-(4-chloro-phenylamino)-thiazol-5-yl]-(3-nitro-phenyl)-methanone], the IC50 (on PDE4D (setting [6]); in experiment [1] (setting [7])) was below 10 µM in each case.

For `Nc1nc(NC2CC2)sc1C(=O)c1cccc(C(F)(F)F)c1` [Compound 2-88, (4-Amino-2-cyclopropylamino-thiazol-5-yl)-(3-trifluoromethyl-phenyl)-methanone], the IC50 (at PDE4D (setting [6]); in experiment [1] (setting [7])) was below 10 µM in each case.

Take `COc1ccc(OC)c(C(=O)c2sc(NC3CCOC3=O)c(C#N)c2N)c1` (centres unmarked) [Compound 1-98, 4-Amino-5-(2,5-dimethoxy-benzoyl)-2-(2-oxo-tetrahydro-furan-3-ylamino)-thiophene-3-carbonitrile]: the IC50 is above 10 µM on PDE4D (setting [2]) and below 10 µM in experiment [1] (setting [3]).

For the molecule `O=S(=O)(c1ccc(Br)s1)N(c1cccc2cccnc12)S(=O)(=O)c1ccc(Br)s1` [Compound 3-42], the IC50 (at PDE4D (setting [4]); in experiment [1] (setting [5])) was above 10 µM throughout.

On to `COc1cc(NS(=O)(=O)c2ccc(Cl)s2)c2ncccc2c1` [Compound 3-12, 5-Chloro-thiophene-2-sulfonic acid (6-methoxy-quinolin-8-yl)-amide], for which the IC50 (at PDE4D (setting [4]); in experiment [1] (setting [5])) was above 10 µM in each case.

With `COC(=O)C(CCSC)Nc1sc(C(=O)c2cccc(Cl)c2)c(N)c1C#N` (centres unmarked) [Compound 1-156], the IC50 (at PDE4D (setting [2]); in experiment [1] (setting [3])) was below 10 µM each time.

Turning to `COc1ccc(CNc2sc(C(=O)c3ccc(C)cc3C)c(N)c2C#N)cc1OC` [Compound 1-162, 4-Amino-2-(3,4-dimethoxy-benzylamino)-5-(2,4-dimethyl-benzoyl)-thiophene-3-carbonitrile], the IC50 (on PDE4D (setting [2]); in experiment [1] (setting [3])) was below 10 µM each time.

Regarding `COc1ccc(C(=O)c2sc(Nc3ccc(Oc4ccccc4)cc3)nc2N)cc1` [Compound 2-49, [4-Amino-2-(4-phenoxy-phenylamino)-thiazol-5-yl]-(4-methoxy-phenyl)-methanone], the IC50 (at PDE4D (setting [6]); in experiment [1] (setting [7])) was below 10 µM in each case.

On to `N#Cc1c(Nc2ccc(C(=O)NC3CCOC3=O)cc2)sc(C(=O)c2ccccn2)c1N` (centres unmarked) [Compound 1-151, 4-[4-Amino-3-cyano-5-(pyridine-2-carbonyl)-thiophen-2-ylamino]-N-(2-oxo-tetrahydro-furan-3-yl)-benzamide], for which the IC50 on PDE4D (setting [2]) is above 10 µM; in experiment [1] (setting [3]) it was below 10 µM.

For the molecule `Cc1cc(=O)[nH]c2sc(C(=O)c3ccc(Cl)c(Cl)c3)c(N)c12` [Compound 1-27, 3-Amino-2-(3,4-dichloro-benzoyl)-4-methyl-7H-thioeno[2,3-b]pyridin-6-one], the IC50 on PDE4D (setting [2]) is above 10 µM.
